# According to patent US4132738A, “Preparation of 15-deoxy-16-hydroxyprostaglandins” (Miles Laboratories, Inc., priority 1978, dated 1979):
# What was measured:
# Conditions in all cases: comparison in words
# [1] = test system: rat stomach, rat colon, chick rectum, and rabbit aorta; assay: Cascade assay, all four tissues; assay type: cell-based
# Description: (§1) The smooth muscle stimulant effects of the test compounds were determined simultaneously in four different tissues that are known to be reactive to naturally occurring prostaglandins. Segments of rat stomach fundus, rat colon, chick rectum and rabbit aortic strip were obtained as described by: Vane, J. R., Brit. J. Pharmacol., 12: 344 (1957); Regoli, D. and Vane, J. R., Brit. J. Pharmacol., 23: 351 (1964); Mann, M. and West, G. B., Brit. J. Pharmacol., 5: 173 (1950); and Furchgott, R. F. and Bhadrakom, R., J. Pharmacol. Exper. Ther., 108: 129 (1953). One end of each preparation was tied to the bottom of a 10 ml tissue chamber and the other to a force displacement transducer (Grass FT-03) for continuous tension recording. The stomach, colon, and rectum segments were stretched to an initial tension of 1 g, while the aortic strip was subjected to 4 g. All preparations were left undisturbed for 1 hour prior to ptesting. The chambers were equipped with an external jacket through which water, maintained at 40° C., was circulated. […]
# (§2) Test compounds were diluted from stock solutions so as to administer quantities ranging from 0.0001 to 100,000 ng in a volume of 0.5 ml. […] Maximal increases in tension after each dose were measured and the results were used to plot dose-response curves. […]
# (§3) Activity in each tissue was scored according to the following scale: […]
# [2] = test system: blood pressure and heart rate in the anesthetized cat; assay: Effects on blood pressure and heart rate in the anesthetized cat; assay type: in vivo
# Description: The acute effects of test compounds on blood pressure and heart rate were determined in cats of either sex anesthetized with a mixture of pentobarbital sodium (35 mg/kg, i.v.) and barbital sodium (100 mg/kg, i.v.). Cannulas were placed in the trachea to allow adequate spontaneous ventilation, in a femoral artery for blood pressure recording with a strain gage transducer, and in a saphenous vein for drug administration.
# Heart rate was recorded by means of a cardiotachometer driven by the R wave of the electrocardiogram. After a period of 10 minutes of stable recordings of blood pressure and heart rate, the test compound was administered intravenously at doses increasing from 0.01 to 10.0 mcg/kg, spaced one log and injected at 10 minute intervals. All doses were injected in a volume of 0.1 ml/kg. Modifications of blood pressure and heart rate induced by the test compound were expressed both in absolute units (mmHg and beats/minute) and as percent of values recorded immediately before administration of each dose. Biphasic responses were tabulated in the order in which they occurred. […]
# Activity of compounds in this test was judged only on the basis of the degree of hypotension observed. Thus, the ED50 mmHg (dose decreasing blood pressure by 50 mmHg) was calculated graphically, and the compound scored according to the following scale: […]
# rat stomach = assay: Cascade assay, rat stomach fundus in vitro; assay type: cell-based
# Description: as §1, §2, §3
# rat colon = assay: Cascade assay, rat colon in vitro; assay type: cell-based
# Description: as §1, §2, §3
Compound,"Cascade values, methyl ester versus carbinol [1]","Feline blood pressure and heart rate value, methyl ester versus carbinol [2]","Cascade stomache value, methyl ester versus carbinol (rat stomach)","Cascade colon value, methyl ester versus carbinol (rat colon)"
"CCCCC(C)(O)C/C=C/[C@H]1[C@H](O)CC(=O)[C@@H]1CCCCCCC(=O)OC (stereo partly drawn) [TR 4704, Methyl 11α, 16RS-dihydroxy-16-methyl-9-oxoprost-13E-oate, reference compound]",significantly and undesirably higher,significantly and undesirably higher,–,–
"CCCCC(O)C/C=C/[C@H]1[C@H](O)CC(=O)[C@@H]1CCCCCCC(=O)OC (stereo partly drawn) [TR 4705, Methyl 11α, 16RS-dihydroxy-9-oxoprost-13E-en-1-oate, reference compound]",–,–,higher,higher
